Activity calls are given as the source filed them.
How the values were obtained:
[1] = biological target: T1, Caspase-3 (Homo sapiens, UniProt P42574); type: functional;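 note: Dose-response selectivity test against caspase-3 for candidate inhibitors of sentrin-specific proteases (SENPs)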
T1 sequence (P42574 whole entry): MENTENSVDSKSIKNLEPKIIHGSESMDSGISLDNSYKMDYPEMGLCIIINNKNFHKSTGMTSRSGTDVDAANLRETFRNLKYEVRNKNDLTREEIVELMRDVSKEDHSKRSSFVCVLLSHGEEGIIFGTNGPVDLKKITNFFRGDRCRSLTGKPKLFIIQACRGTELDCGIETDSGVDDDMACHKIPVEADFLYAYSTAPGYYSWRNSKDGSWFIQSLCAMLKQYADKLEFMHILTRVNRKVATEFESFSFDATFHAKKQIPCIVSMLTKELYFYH

[2] = biological target: T2, Sentrin-specific protease 7 (Homo sapiens, UniProt Q9BQF6); type: functional;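 note: Luminescence-based dose-response confirmation of ultra-high-throughput screening hits, measuring inhibition of SENP7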
T2 sequence (Q9BQF6 whole entry): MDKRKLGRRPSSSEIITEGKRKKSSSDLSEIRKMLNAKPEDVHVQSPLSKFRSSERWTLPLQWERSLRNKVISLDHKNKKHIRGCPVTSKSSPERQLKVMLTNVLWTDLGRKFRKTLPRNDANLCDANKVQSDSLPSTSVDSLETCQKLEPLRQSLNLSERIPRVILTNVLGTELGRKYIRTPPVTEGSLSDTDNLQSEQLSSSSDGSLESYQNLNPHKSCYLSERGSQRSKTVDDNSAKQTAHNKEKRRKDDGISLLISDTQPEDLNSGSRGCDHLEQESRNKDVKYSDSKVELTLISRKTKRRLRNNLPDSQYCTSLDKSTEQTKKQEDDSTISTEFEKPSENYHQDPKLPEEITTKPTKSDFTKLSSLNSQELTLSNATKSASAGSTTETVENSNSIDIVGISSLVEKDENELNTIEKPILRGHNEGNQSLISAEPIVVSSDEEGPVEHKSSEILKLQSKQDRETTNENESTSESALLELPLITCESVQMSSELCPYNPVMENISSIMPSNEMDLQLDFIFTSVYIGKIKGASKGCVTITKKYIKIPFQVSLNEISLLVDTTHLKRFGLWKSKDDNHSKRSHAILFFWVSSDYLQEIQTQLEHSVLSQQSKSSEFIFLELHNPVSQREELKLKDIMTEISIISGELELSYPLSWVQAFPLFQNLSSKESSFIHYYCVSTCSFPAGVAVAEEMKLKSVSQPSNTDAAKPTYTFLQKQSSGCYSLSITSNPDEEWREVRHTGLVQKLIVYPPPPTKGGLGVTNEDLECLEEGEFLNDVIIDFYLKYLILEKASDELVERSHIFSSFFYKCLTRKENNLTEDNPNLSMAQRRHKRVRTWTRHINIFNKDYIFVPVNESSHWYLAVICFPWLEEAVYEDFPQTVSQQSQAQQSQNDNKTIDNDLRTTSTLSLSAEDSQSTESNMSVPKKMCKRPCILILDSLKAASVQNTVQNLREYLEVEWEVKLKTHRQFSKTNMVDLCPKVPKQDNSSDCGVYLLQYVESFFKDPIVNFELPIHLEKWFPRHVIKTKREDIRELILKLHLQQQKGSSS

[3] = biological target: T3, Sentrin-specific protease 6 (Homo sapiens, UniProt Q9GZR1); type: functional;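 note: Luminescence-based dose-response confirmatory assay of SENP6 inhibition, following up an ultra-high-throughput screen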
T3 sequence (Q9GZR1 whole entry): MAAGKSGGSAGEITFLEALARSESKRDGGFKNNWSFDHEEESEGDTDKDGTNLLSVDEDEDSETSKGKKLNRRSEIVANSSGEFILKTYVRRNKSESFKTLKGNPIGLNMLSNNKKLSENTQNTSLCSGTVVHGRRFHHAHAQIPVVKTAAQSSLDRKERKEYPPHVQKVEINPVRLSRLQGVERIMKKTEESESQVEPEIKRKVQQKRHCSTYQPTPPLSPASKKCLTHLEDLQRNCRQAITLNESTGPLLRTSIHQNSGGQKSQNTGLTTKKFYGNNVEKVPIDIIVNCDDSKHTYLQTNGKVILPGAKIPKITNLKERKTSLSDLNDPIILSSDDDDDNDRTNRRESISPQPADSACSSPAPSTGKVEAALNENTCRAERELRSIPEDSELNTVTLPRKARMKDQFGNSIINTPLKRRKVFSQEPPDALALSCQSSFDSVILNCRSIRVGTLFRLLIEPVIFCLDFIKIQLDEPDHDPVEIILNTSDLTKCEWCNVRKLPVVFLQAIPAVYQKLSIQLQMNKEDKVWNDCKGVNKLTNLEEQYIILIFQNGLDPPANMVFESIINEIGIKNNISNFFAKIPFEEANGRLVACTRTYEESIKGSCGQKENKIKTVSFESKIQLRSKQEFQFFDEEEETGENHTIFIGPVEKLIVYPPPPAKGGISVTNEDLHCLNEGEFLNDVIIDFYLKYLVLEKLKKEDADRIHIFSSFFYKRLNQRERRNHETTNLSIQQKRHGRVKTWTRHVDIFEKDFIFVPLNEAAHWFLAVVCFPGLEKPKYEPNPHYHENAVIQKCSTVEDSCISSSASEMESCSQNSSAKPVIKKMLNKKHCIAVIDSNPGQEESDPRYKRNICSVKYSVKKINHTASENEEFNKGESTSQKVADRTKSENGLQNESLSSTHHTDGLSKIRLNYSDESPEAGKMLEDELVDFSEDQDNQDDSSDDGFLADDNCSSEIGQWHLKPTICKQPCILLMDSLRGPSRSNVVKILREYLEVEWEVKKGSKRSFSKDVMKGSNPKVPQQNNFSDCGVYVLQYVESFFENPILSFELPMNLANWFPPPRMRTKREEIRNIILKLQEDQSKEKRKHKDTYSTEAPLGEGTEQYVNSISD

[4] = biological target: T4, Sentrin-specific protease 8 (Homo sapiens, UniProt Q96LD8); type: functional;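 note: luminescence read-out of SENP8 inhibition, dose-response confirmation following an ultra-high-throughput screen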
T4 sequence (Q96LD8 whole entry): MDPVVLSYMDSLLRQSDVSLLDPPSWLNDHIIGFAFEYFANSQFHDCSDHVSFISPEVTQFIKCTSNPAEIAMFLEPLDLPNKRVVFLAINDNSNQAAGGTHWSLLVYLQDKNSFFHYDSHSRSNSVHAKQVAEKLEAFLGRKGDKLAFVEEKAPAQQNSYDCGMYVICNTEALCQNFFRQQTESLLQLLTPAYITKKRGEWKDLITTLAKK

[5] = biological target: T5, Calpain-2 catalytic subunit (Sus scrofa, UniProt P43367); experiment: m-calpain protease blockers, concentration series – biochemical, fluorogenic peptide substrate, dose response (AID 1420); type: functional
T5 sequence (P43367 whole entry): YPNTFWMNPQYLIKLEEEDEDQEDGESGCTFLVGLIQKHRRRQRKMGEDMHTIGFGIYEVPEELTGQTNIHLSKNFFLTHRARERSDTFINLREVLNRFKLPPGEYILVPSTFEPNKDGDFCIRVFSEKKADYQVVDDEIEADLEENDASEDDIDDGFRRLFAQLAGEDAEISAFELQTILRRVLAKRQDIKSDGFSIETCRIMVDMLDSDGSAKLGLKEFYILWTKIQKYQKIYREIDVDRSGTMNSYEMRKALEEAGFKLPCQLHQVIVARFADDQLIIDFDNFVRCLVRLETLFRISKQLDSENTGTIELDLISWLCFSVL

[6] = system: HEK293; experiment: EBV LMP1 TES2 canonical NF-kB signalling blockers – cell-based, HEK293, luciferase, cherry-pick, dose response (AID 588343); type: functional; settings: Homo sapiens
[7] = reduction of Shn3 3'UTR-driven luciferase in osteoblasts – cell-based, Clone20 osteoblasts, firefly luciferase, cherry-picked, dose response (AID 624132); type: functional;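 note: firefly luciferase luminescence from reporter carrying the Shn3 3'UTR in osteoblasts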
[8] = loss of viability in HepG2 cells – cell-based, CellTiter-Glo, cherry-picked, cytotoxicity control for Shn3 inhibitor project, dose response (AID 624134); type: functional
[9] = non-specific 3'UTR reporter inhibition in Clone20-Shn3RL – cell-based, Renilla luciferase, cherry-picked, counter-screen for Shn3 inhibitor project, dose response (AID 624133); type: functional
[10] = biological target: T6, Methionyl-tRNA synthetase, putative (Trypanosoma brucei brucei, UniProt Q38C91); type: functional, Trypanosoma brucei brucei strain 927/4 GUTat10.1;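 note: Read-out by fluorescence polarization, run as a confirmatory high-throughput counterscreen; potency of MetRS inhibitors measured by reduced AMP formation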
T6 sequence (Q38C91 whole entry): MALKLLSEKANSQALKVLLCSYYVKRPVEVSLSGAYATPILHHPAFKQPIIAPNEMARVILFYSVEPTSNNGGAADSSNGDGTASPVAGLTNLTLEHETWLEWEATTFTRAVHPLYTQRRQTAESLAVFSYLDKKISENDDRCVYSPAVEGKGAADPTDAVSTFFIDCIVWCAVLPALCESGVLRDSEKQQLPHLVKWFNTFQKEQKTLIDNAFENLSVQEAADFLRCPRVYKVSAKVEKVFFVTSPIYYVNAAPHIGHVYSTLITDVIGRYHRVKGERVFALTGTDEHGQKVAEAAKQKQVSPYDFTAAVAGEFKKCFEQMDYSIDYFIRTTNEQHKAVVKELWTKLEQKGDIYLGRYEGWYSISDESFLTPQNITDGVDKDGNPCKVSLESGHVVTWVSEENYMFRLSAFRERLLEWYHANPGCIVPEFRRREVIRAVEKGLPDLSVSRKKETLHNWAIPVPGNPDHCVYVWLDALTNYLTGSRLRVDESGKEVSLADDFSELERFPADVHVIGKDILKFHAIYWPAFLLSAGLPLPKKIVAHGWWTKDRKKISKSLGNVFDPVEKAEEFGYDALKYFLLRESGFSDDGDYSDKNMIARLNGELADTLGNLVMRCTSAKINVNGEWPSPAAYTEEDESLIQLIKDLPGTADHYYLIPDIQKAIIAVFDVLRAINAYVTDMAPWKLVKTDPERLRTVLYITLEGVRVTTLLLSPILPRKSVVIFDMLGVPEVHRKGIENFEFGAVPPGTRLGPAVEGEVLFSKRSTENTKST

[11] = Counterscreen for inhibitors of Trypanosoma brucei methionyl tRNA synthetase (MetRS): Luminescence-based cell-based high throughput dose response assay to identify compounds that are cytotoxic to Jurkat human T lymphocyte cells.; type: functional
[12] = system: Streptococcus sp. 'group A'; experiment: Streptococcus pyogenes SK(-)GAS viability under kanamycin – luminescence, BacTiterGlo, confirmation, counter-screen for streptokinase expression inhibitor project, dose response (AID 1900); type: functional, organism-based
[13] = biological target: T7, Heat shock factor protein 1 (Mus musculus, UniProt P38532); experiment: decrease of HSF1-responsive luciferase luminescence – cell-based, NIH3T3, dose retest, confirmation (AID 2382); type: functional;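 note: NIH3T3 fibroblasts with HSF1-driven luciferase reporter stressed by proteasome inhibitor MG132; luminescence from HSF1-driven luciferase expression after 8 hours of MG132 stress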
T7 sequence (P38532 whole entry): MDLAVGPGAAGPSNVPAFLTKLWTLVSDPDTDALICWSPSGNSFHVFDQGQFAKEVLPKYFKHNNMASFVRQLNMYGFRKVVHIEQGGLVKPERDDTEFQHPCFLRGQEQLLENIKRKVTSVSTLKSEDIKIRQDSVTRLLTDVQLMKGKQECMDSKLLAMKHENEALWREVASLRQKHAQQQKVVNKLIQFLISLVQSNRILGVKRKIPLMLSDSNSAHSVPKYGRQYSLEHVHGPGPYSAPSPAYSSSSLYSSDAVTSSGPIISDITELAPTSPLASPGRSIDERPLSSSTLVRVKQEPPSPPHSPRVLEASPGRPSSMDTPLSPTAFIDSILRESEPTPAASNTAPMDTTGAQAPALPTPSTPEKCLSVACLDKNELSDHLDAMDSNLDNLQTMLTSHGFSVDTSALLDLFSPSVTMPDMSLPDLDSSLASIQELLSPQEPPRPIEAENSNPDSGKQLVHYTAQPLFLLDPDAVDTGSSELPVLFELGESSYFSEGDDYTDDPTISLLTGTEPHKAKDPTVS

[14] = biological target: T8, Streptokinase A (Streptococcus pyogenes serotype M1, UniProt P10520); experiment: viability-normalized secreted streptokinase activity reduction – plasminogen activation absorbance, OD405, dose response (AID 1914); type: functional, Streptococcus pyogenes M1 GAS;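 note: secreted streptokinase activity via plasminogen activation per viability signal from cell pellet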
T8 sequence (P10520 whole entry): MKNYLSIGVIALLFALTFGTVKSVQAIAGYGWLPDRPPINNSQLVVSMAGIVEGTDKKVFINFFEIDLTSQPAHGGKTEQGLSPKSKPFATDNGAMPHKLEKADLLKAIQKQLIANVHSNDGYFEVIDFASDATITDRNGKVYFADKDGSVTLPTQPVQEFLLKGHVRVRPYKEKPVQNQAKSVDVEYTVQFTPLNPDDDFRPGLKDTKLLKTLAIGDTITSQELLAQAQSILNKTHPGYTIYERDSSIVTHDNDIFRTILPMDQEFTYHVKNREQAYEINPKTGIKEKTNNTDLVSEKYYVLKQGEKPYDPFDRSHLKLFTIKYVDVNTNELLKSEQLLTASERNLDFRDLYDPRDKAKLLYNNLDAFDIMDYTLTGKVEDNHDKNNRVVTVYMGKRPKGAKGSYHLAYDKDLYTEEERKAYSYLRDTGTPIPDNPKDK

[15] = system: Streptococcus; experiment: GAS UMAA2166 growth inhibition – luminescence, BacTiterGlo, counter-screen for streptokinase expression inhibitor project, dose response (AID 1915); type: functional, organism-based;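 note: potency for reduction of bacterial viability or growth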
[16] = biological target: Genome polyprotein (dengue virus type 2, UniProt P29990); experiment: flavivirus cap methylation enzyme inhibition – biochemical, confirmation dose response, primary screen (AID 588689); type: functional
Chain of Genome polyprotein (P29990 2492-3391 limits assumed): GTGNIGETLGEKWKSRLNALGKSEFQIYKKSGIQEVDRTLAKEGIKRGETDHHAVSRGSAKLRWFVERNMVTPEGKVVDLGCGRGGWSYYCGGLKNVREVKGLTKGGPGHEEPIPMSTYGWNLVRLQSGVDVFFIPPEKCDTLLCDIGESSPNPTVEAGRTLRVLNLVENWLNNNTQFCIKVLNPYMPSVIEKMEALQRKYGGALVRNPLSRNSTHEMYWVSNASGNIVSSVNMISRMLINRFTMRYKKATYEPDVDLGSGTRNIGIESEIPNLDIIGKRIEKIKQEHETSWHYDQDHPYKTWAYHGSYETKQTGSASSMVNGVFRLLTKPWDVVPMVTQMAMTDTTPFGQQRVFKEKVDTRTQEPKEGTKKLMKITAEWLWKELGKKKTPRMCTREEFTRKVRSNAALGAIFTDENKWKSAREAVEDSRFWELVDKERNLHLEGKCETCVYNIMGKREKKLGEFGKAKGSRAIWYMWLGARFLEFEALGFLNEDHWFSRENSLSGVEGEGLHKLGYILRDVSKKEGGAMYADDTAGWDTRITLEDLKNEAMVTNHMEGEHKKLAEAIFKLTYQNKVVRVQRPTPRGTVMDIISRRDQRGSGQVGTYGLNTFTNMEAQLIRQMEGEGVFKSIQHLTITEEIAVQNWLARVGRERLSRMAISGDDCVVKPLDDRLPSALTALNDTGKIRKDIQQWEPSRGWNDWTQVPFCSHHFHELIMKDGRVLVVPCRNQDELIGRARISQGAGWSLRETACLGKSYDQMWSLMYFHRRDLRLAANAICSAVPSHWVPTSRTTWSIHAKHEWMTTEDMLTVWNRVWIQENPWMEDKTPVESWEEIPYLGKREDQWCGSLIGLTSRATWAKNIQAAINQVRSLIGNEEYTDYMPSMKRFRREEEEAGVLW

SMILES	IC50 [1]	IC50 [2]	IC50 [3]	IC50 [4]	AC50 [6]	also measured
CCOC(=O)c1c(C)[nH]c(N=Nc2cccc(C)c2)c1C	40.3 µM (active)	5.37 µM (active)	18 µM (active)	14.7 µM (active)	–	–
CCCc1ccc(OC(=O)c2ccc(O)cc2Cl)cc1	38.4 µM (active)	8.1 µM (active)	8.84 µM (active)	9.08 µM (active)	–	IC50 [5]: 3.76 µM (not active)
Fc1ccc2[nH]c3c(N4CCN(c5ccccc5)CC4)ncnc3c2c1	–	–	–	–	6.19 µM (active)	AC50 [7]: 3.78 µM (active); AC50 [8]: 31.5 µM (active); AC50 [9]: 5.5 µM (active)
O=C(Nc1cccnc1)c1ccc(COc2cc(Cl)ccc2Cl)o1	–	–	–	–	–	IC50 [10]: 23.5 µM (inactive); IC50 [11]: 12.8 µM (inactive)
O=C(O)CN1C(=O)/C(=C\c2ccccc2OCc2ccc(Cl)cc2Cl)SC1=S	–	–	–	–	12.7 µM (active)	EC50 [12]: 4.28 µM (active); EC50 [13]: 2.58 µM (active); EC50 [14]: 17.9 µM (inconclusive); EC50 [15]: 32.4 µM (active); IC50 [16]: 87.6 µM (active)
Nc1ccccc1C#Cc1ccc([N+](=O)[O-])cc1	23.2 µM (active)	6.02 µM (active)	31 µM (active)	80 µM (active)	–	–
O=C(N/N=C/c1cccc(O)c1)c1ccc2c(c1)OCCO2	–	–	–	–	0.889 µM (active)	–

From ChEMBL document CHEMBL1201862, “PubChem BioAssay data set” (2004)
